Where a name gives a salt, the structure may show the parent alone.
Tests used:
hIL-6 mRNA = assay: Inhibition of hIL-6 mRNA transcription in LPS-stimulated U937 macrophages; assay type: cell-based, human; parameters: key: Active: Compounds with an IC50 value less than 30 μM are deemed to be active.; Not Active: Compounds with an IC50 value less than 30 μM are deemed to be active; conditions: U937 cells differentiated with PMA, 1 h pretreatment, LPS 3 h
Method: In this example, hIL-6 mRNA in tissue culture cells was quantitated to measure the transcriptional inhibition of hIL-6 when treated with a compound of the present disclosure.
A human leukemic monocyte lymphoma cell line (U937) was plated (3.2×10^4 cells per well) in a 96-well plate in […] RPMI-1640 containing 10% FBS and penicillin/streptomycin, and differentiated into macrophages for 3 days in 60 ng/mL PMA ([…]) at 37° C. in 5% CO2 prior to the addition of the compound of interest. The cells were pretreated for 1 h with the test compound prior to stimulation with 1 ug/mL lipopolysaccharide from Escherichia coli. The cells were incubated at 37-C for 3 h before the cells were harvested. At time of harvest, the spent media was removed from the cells and the cells were rinsed in 200 μL PBS. Cell lysis solution (70 μL) was added the cells in each well and incubated for 5-10 min at room temperature, to allow for complete cell lysis and detachment. mRNA was then prepared using the “mRNA Catcher PLUS plate” (Invitrogen), according to the protocol supplied. After the last wash, as much wash buffer as possible was aspirated without allowing the wells to dry. Elution buffer (E3, 70 μL) was then added to each well. mRNA was then eluted by incubating the mRNA Catcher PLUS plate with Elution Buffer for 5 min at 68° C. and then immediately placing the plate on ice.
The eluted mRNA isolated was then used in a one-step quantitative real-time PCR reaction, using components of the Ultra Sense Kit together with Applied Biosystems primer-probe mixes. Real-time PCR data was analyzed, normalizing the Ct values for hIL-6 to an internal control, prior to determining the fold induction of each unknown sample, relative to the control.

Brd4 bromodomain 1 = biological target: T1, Brd4 bromodomain 1 (Homo sapiens, UniProt O60885); assay: Inhibition of tetra-acetylated histone H4 binding to BET bromodomain (TR-FRET); parameters: key: Active: Compounds with an IC50 value less than 30 μM were deemed to be active.; Not Active: Compounds with an IC50 value less than 30 μM were deemed to be active; conditions: Brd4 bromodomain 1, tetra-acetylated histone H4 peptide
T1 construct: made in house; host or cells: E. coli BL21(DE3)
Method: Proteins were cloned and overexpressed with a N-terminal 6×His tag, then purified by nickel affinity followed by size exclusion chromatography. Briefly, E. coli BL21(DE3) cells were transformed with a recombinant expression vector encoding N-terminally Nickel affinity tagged bromodomains from Brd2, Brd3, Brd4. Cell cultures were incubated at 37° C. with shaking to the appropriate density and induced overnight with IPTG. The supernatant of lysed cells was loaded onto Ni-IDA column for purification. Eluted protein is pooled, concentrated and further purified by size exclusion chromatography. Fractions representing monomeric protein were pooled, concentrated, aliquoted, and frozen at −80° C. for use in subsequent experiments.
Binding of tetra-acetylated histone H4 and BET bromodomains was confirmed by a Time Resolved Fluorescence Resonance Energy Transfer (TR-FRET) method. N-terminally His-tagged bromodomains (200 nM) and biotinylated tetra-acetylated histone H4 peptide (25-50 nM, Millipore) were incubated in the presence of Europium Cryptate-labeled streptavidin (Cisbio Cat. #610SAKLB) and XL665-labeled monoclonal anti-His antibody (Cisbio Cat. #61HISXLB) in a white 96 well microtiter plate (Greiner). For inhibition assays, serially diluted test compound was added to these reactions in a 0.2% final concentration of DMSO. Final buffer concentrations were 30 mM HEPES pH 7.4, 30 mM NaCl, 0.3 mM CHAPS, 20 mM phosphate pH 7.0, 320 mM KF, 0.08% BSA). After 2 hours incubation at room temperature, the fluorescence by FRET was measured at 665 and 620 nm by a SynergyH4 plate reader (Biotek). The binding inhibitory activity was shown by a decrease in 665 nm fluorescence relative to 620 nm. IC50 values were determined from a dose response curve.

Human AML MV-4-11 cells = assay: Inhibition of cell proliferation in MV4-11 cells; assay type: cell-based; parameters: key: Active: Compounds with an IC50 value less than 30 μM are deemed to be active.; Not Active: Compounds with an IC50 value less than 30 μM are deemed to be active; conditions: 72 hours
Method: MV4-11 cells: 96-well plates were seeded with 5×10^4 cells per well of exponentially growing human AML MV-4-11 (CRL-9591) cells and immediately treated with two-fold dilutions of test compounds, ranging from 30 μM to 0.2 μM. Triplicate wells were used for each concentration, as well as a media only and three DMSO control wells. The cells and compounds were incubated at 37° C., 5% CO2 for 72 hours before adding 20 μL of the CellTiter Aqueous One Solution (Promega) to each well and incubating at 37° C., 5% CO2 for an additional 3-4 hours. The absorbance was taken at 490 nm in a spectrophotometer and the percentage of proliferation relative to DMSO-treated cells was calculated after correction from the blank well. IC50 were calculated using the GraphPad Prism software.

c-myc = assay: Inhibition of c-myc expression (mRNA, real-time PCR) in MV4-11 cells; assay type: cell-based; parameters: key: Active: Compounds with an IC50 value less than 30 μM were deemed to be active.; Not Active: Compounds with an IC50 value less than 30 μM were deemed to be active; conditions: Human AML MV4-11 cells, 3 hours
Method: MV4-11 cells (2.5×10^4 cells) were plated in 96 well U-bottom plates with test compound or DMSO (0.1%), and incubated for 3 hours at 37° C. Cells were then harvested by centrifugation, lysed, and mRNA was isolated using the mRNA catcher plus kit (Invitrogen). Reverse transcription of the mRNA and duplex amplification of the c-myc and cyclophilin cDNAs was performed using the RNA Ultrasense kit (Invitrogen) and a ViiA7 real-time PCR machine (Applied Biosystems). IC50 values were determined from a dose response curve.

hApoA-1 mRNA = assay: Up-regulation of hApoA-1 mRNA transcription in Huh7 cells; assay type: cell-based, human; parameters: key: Active: Compounds with an EC170 value less than 30 μM are deemed to be active.; Not Active: Compounds with an EC170 value less than 30 μM are deemed to be active; conditions: 48 hrs treatment, ApoA-I mRNA
Method: In this example, ApoA-I mRNA in tissue culture cells was quantitated to measure the transcriptional up-regulation of ApoA-I when treated with a compound of the present disclosure.
Huh7 cells ([…] per well) were plated in a 96-well plate using 100 μL DMEM per well, (Gibco DMEM supplemented with penicillin/streptomycin and 10% FBS), 24 h before the addition of the compound of interest. After 48 hrs treatment, the spent media was removed from the Huh-7 cells and placed on ice (for immediate use) or at −80° C. (for future use) with the “LDH cytotoxicity assay Kit II” from Abcam. The cells remaining in the plate were rinsed with 100 μL PBS.
Then 85 μL of cell lysis solution was added to each well and incubated for 5-10 minutes at room temperature, to allow for complete cell lysis and detachment. mRNA was then prepared using the “mRNA Catcher PLUS plate” from Life Technologies, according to the protocol supplied. After the last wash, as much wash buffer as possible was aspirated without allowing the wells to dry. Elution Buffer (E3, 80 μL) was then added to each well. mRNA was then eluted by incubating the mRNA Catcher PLUS plate with Elution Buffer for 5 minutes at 68° C., and then 1 minute at 4° C. Catcher plates with mRNA eluted were kept on ice for use or stored at −80° C.
The eluted mRNA isolated was then used in a one-step real-time PCR reaction, using components of the Ultra Sense Kit together with Life Technologies primer-probe mixes. Real-time PCR data was analyzed, using the Ct values, to determine the fold induction of each unknown sample, relative to the control (that is, relative to the control for each independent DMSO concentration).
Compounds with an EC170 value less than 30 μM are deemed to be active.

SMILES | IL-6 activity (IC50 < 30 μM) (hIL-6 mRNA) | FRET activity (IC50 < 30 μM) (Brd4 bromodomain 1) | cell proliferation activity (IC50 < 30 μM) (Human AML MV-4-11 cells) | c-myc activity (IC50 < 30 μM) (c-myc) | ApoA-1 activity (EC170 < 30 μM) (hApoA-1 mRNA)
COc1cc(-c2ccccc2)cc2nc(-c3cccc(N4CCN(C(C)C)CC4)n3)[nH]c(=O)c12 [Example 25, 2-(6-(4-Isopropylpiperazin-1-yl)pyridin-2-yl)-5-methoxy-7-phenylquinazolin-4(3H)-one] | Not Active | Active | – | – | –
COc1cc(OCc2ccccc2)cc2nc(-c3cccc(N4CCN(C(C)C)CC4)n3)[nH]c(=O)c12 [Example 22, 7-(Benzyloxy)-2-(6-(4-isopropylpiperazin-1-yl)pyridin-2-yl)-5-methoxyquinazolin-4(3H)-one Hydrochloride] | Active | Active | Active | Active | –
COc1cc(OC)c2c(=O)[nH]c(-c3ccc(OCCO)c(N4CCN(C(C)C)CC4)n3)nc2c1 [Example 13, 2-(5-(2-Hydroxyethoxy)-6-(4-isopropylpiperazin-1-yl)pyridin-2-yl)-5,7-dimethoxyquinazolin-4(3H)-one acetate] | Active | Active | Not Active | Active | Active
COc1cc(N2CCN(C(C)C)CC2)cc2nc(-c3cccc(N4CCN(C(C)C)CC4)n3)[nH]c(=O)c12 [Example 23, 7-(4-Isopropylpiperazin-1-yl)-2-(6-(4-isopropylpiperazin-1-yl)pyridin-2-yl)-5-methoxyquinazolin-4(3H)-one Hydrochloride] | Not Active | Active | Active | Active | –
COc1cc(OC)c2c(=O)[nH]c(-c3cc(OC(F)(F)F)cc(N4CCN(C(C)C)CC4)c3)nc2c1 [Example 20, 2-(3-(4-Isopropylpiperazin-1-yl)-5-(trifluoromethoxy)phenyl)-5,7-dimethoxyquinazolin-4(3H)-one] | Active | Active | Not Active | Not Active | –
COc1cc(OC)c2c(=O)[nH]c(-c3cccc(N4CCN(C(=O)NC(C)C)CC4)n3)nc2c1 [Example 27, 4-(6-(5,7-Dimethoxy-4-oxo-3,4-dihydroquinazolin-2-yl)pyridin-2-yl)-N-isopropylpiperazine-1-carboxamide Hydrochloride] | Active | Active | Active | Active | –
COc1ccc(OCc2ccccc2)c2nc(-c3cccc(N4CCN(C(C)C)CC4)c3)[nH]c(=O)c12 [Example 26, 8-(Benzyloxy)-2-(3-(4-isopropylpiperazin-1-yl)phenyl)-5-methoxyquinazolin-4(3H)-one] | Not Active | Active | Not Active | Not Active | –
COc1cc(OC)c2c(=O)[nH]c(-c3cccc(N4CCN(S(C)(=O)=O)CC4)n3)nc2c1 [Example 18, 5,7-Dimethoxy-2-(6-(4-(methylsulfonyl)piperazin-1-yl)pyridin-2-yl)quinazolin-4(3H)-one Hydrochloride] | Not Active | Not Active | – | – | –
COc1cc(OC)c2c(=O)[nH]c(-c3cccc(N4CCN(C(C)C)CC4=O)n3)nc2c1 [Example 28, 2-(6-(4-Isopropyl-2-oxopiperazin-1-yl)pyridin-2-yl)-5,7-dimethoxyquinazolin-4(3H)-one Hydrochloride] | – | Not Active | – | – | Not Active
COc1cc(F)cc2nc(-c3cccc(N4CCN(C(C)C)CC4)n3)[nH]c(=O)c12 [Example 21, 7-Fluoro-2-(6-(4-isopropylpiperazin-1-yl)pyridin-2-yl)-5-methoxyquinazolin-4(3H)-one Hydrochloride] | Active | Active | Active | Active | –
COc1cc(OC)c2c(=O)[nH]c(-c3cccc(N4CCOCC4)n3)nc2c1 [Example 16, 5,7-Dimethoxy-2-(6-morpholinopyridin-2-yl)quinazolin-4(3H)-one Hydrochloride] | Active | Active | Not Active | Not Active | –
COc1cc(OC)c2c(=O)[nH]c(-c3cccc(N4CCN(C)C(=O)C4)n3)nc2c1 [Example 30, 5,7-Dimethoxy-2-(6-(4-methyl-3-oxopiperazin-1-yl)pyridin-2-yl)quinazolin-4(3H)-one] | Active | Not Active | Not Active | Not Active | –

Source: patent US9278940B2, “Cyclic amines as bromodomain inhibitors” (Zenith Epigenetics Corp., priority 2012, dated 2016)
